Laboratory results from patent publication US20250243190A1, “NEW DEUTERATED RORGAMMA/RORGAMMAT INVERSE AGONISTS” (IMMUNIC AG, priority 2022, published 2025).

What was measured:
[1] = Microsomal stability, human liver microsomes
Protocol: (§1) The conversion to the metabolite was monitored by HPLC-MS/MS. Verapamil served as positive control.
(§2) The metabolism was monitored by HPLC-MS/MS. Verapamil served as positive control. The intrinsic clearance was calculated from the measured remaining compound values.
as §2

[2] = target: T1, RORγt (Homo sapiens, UniProt P51449); assay: Indigo Biosciences Human RAR-related Orphan Receptor, Gamma Reporter Assay (in vitro inhibition of RORγt); assay type: cell-based; conditions: RORγt reporter cells, luciferase readout, 22-24 h incubation; read-out: IC50 range
T1 sequence (P51449 269-508 limits assumed): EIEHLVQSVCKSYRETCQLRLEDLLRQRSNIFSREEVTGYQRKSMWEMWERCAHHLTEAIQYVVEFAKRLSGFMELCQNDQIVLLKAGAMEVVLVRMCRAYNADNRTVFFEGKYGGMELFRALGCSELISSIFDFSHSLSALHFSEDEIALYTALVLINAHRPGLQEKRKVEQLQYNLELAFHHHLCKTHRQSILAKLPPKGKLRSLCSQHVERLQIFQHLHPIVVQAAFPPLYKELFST
Protocol: The in vitro inhibition of RORγt was measured using Indigo Biosciences Human RAR-related Orphan Receptor, Gamma Reporter Assay System (Product #IB304001-32) as described in the technical manual. In brief, 200 μL of Reporter Cells is dispensed into wells of the assay plate and preincubated for 4-6 h. Following the pre-incubation period, culture media are discarded and 200 µL/well of the prepared 1×-concentration treatment media are added. Following 22-24 h incubation, treatment media are discarded and Luciferase Detection Reagent is added. The intensity of light emission (in units of ‘Relative Light Units’; RLU) from each assay well is quantified using a plate-reading luminometer. Average values of RLU were determined for each treatment concentration. Non-linear regression analyses were performed and IC50 values determined using GraphPad Prism software. Provided inverse-agonists ursolic acid served as positive control.

[3] = Cell viability assay accompanying the SARS-CoV-2 assay; assay type: cell-based; conditions: cell viability assay of the SARS-CoV-2 test
From the text: (§3) The assay for viral replication (YFP) and the cell viability assay has been described in general in Pathogens 2021; 10:1076 and applied to compounds of the present invention furnished the following results: […]

[4] = test system: SARS-CoV-2; assay: Antiviral activity on SARS-CoV-2, viral replication (YFP) assay; assay type: cell-based; conditions: Severe acute respiratory syndrome coronavirus 2, read-out: EC50 range
From the text: as §3

[5] = Microsomal stability, rat liver microsomes; conditions: 60 min
Protocol: as §1, §2

[6] = Rat pharmacokinetics, oral or intravenous cassette dosing; assay type: in vivo, rats (strain Wistar RjHAN); conditions: for AUC(0-inf) / AUC(0-t) / C0 / CL/F / Cmax / bioavailability: Wistar RjHAN, rat, plasma; for bioavailability: po 5 mg/kg vs iv 1 mg/kg
Protocol: The pharmacokinetics of the deuterated compounds of the present invention was evaluated in 3 male and 3 female rats (strain Wistar RjHAN, 7-8 week old) after oral or intravenous cassette dosing to asses the oral bioavailability. Rats are provided with a catheter in the jugular vein (2-3 days prior to blood sampling). At each designated time point (1, 2, 4, 8 and 24 h after dosing), 100 μL blood were collected into Li-heparin tubes, stored on ice until centrifugation (10 minutes at 3000 g, 4° C.) and plasma was prepared within 45 min after collection, frozen at −20° C. and stored at this temperature until processed for LC-MS analysis.

[7] = Mouse pharmacokinetics, oral or intravenous cassette dosing; assay type: in vivo, mice (C57BL/6J); conditions: C57BL/6J, whole blood; for bioavailability: 5 mg/kg oral vs 1 mg/kg intravenous, read-out: F (bioavailability)
Protocol: The pharmacokinetics of the compounds of the present invention was evaluated in 3 male and 3 female mice (C57BL/6J, 8 week old) after oral or intravenous cassette dosing to assess the oral bioavailability. Dose was 5 mg/kg (oral) and 1 mg/kg (intravenous), application volume was 5 mL/kg (oral) and 0.5 mL/kg (intravenous), vehicle was 5% solutol, 95% NaCl solution (at 0.9% saline concentration) for oral and 5% solutol, 5% Ethanol, 90% NaCl solution (at 0.9% saline concentration) for intravenous. At each designated time point (0.25, 0.5, 1, 2, 4, 8 and 24 h after dosing), 20 μL whole blood were collected from the tail vein into Li-heparin tubes, frozen on dry ice within 1-2 minutes of sampling and stored at −20° C. until processed for LC-MS analysis. The obtained data is as follows:
(§4) The pharmacokinetics of additional compounds of the present invention was evaluated in 3 female mice (C57BL/6J, 8 week old) after oral cassette dosing. Dose was 5 mg/kg, application volume was 5 mL/kg, vehicle was 5% solutol, 95% NaCl solution (at 0.9% saline concentration). At each designated time point (0.5, 1, 2, 4, 8 and 24 h after dosing), 20 μL whole blood were collected from the tail vein into Li-heparin tubes, frozen on dry ice within 1-2 minutes of sampling and stored at −20° C. until processed for LC-MS analysis. The obtained data is as follows:
as §4, with “(0.25, 0.5,” for “(0.5,”, “4 and” for “4,”, “8” for “8 and 24”, “analysis.” for “analysis. The obtained data is as follows:”

[8] = Microsomal stability, mouse liver microsomes; conditions: mouse, 60 min
Protocol: as §1
The metabolism was monitored by HPLC-MS/MS.
Verapamil served as positive control. The intrinsic clearance was calculated from the measured remaining compound values.

[9] = 3 female mice, 5 mg/kg oral cassette, sampling 0.25-8 h
[10] = 3 female mice, 5 mg/kg oral cassette, sampling 0.25-8 h, read-out: AUC0-8 h

## [2H]C(C)(O)Cn1ncc(-c2onc(-c3c(F)cccc3Cl)c2-c2ncccn2)c1C(F)(F)F (stereo not shown) [Comparative Example C1/1, reference compound]
[1]; both
  microsomal CLint: 10.5 µL/min/mg

## CC(O)Cn1ncc(-c2onc(-c3c(F)cccc3Cl)c2-c2ncccn2)c1C(F)(F)F (stereo not shown) [Comparative Example C1/2, reference compound]
[1]; both
  microsomal CLint: 15.7 µL/min/mg

## [2H]C(C)(O)C([2H])([2H])n1ncc(-c2onc(-c3c(F)cccc3Cl)c2-c2ncccn2)c1C(F)(F)F (stereo not shown) [Example 1/1, 1-(4-(3-(2-Chloro-6-fluorophenyl)-4-(pyrimidin-2-yl)isoxazol-5-yl)-5-(trifluoromethyl)-1H-pyrazol-1-yl)propan-1,1,2-d3-2-ol]
[2]
  IC50: 0.01 to 0.1 µM
[1]; both
  microsomal CLint: 7.8 µL/min/mg

## [2H]C([2H])(CC(C)(C)O)n1ncc(-c2onc(-c3c(F)cccc3Cl)c2-c2ncccn2)c1C(F)(F)F [Example 3, 4-(4-(3-(2-Chloro-6-fluorophenyl)-4-(pyrimidin-2-yl)isoxazol-5-yl)-5-(trifluoromethyl)-1H-pyrazol-1-yl)-2-methylbutan-4,4-d2-2-ol]
[3]
  CC50: 22 µM
[2]
  IC50: 0.01 to 0.1 µM
[4]
  EC50: < 0.1 µM
[5]; rat liver microsomes batch 1910100 (Xenotech)
  microsomal CLint: 31.4 µL/min/mg
[5]; rat liver microsomes batch 4085002 (Corning)
  microsomal CLint: 29.7 µL/min/mg
[5]; rat liver microsomes batch 9078001 (Corning)
  microsomal CLint: 30.2 µL/min/mg
[1]; both
  microsomal CLint: 2.2 µL/min/mg
[1]; male
  microsomal CLint: 1.1 µL/min/mg
[6]; female rats, iv 1 mg/kg
  AUC(0-inf): 3.78 µg·h/mL
  AUC(0-t): 3.66 µg·h/mL
  C0: 2.09 µg/mL
  t1/2z: 6.6 h
[6]; female rats, po 5 mg/kg
  AUC(0-inf): 2.95 µg·h/mL
  AUC(0-t): 2.93 µg·h/mL
  CL/F: 7.89 L/h/kg
  Cmax: 0.629 µg/mL
  t1/2z: 3.2 h
[6]; female rats
  bioavailability: 16%
[6]; male rats, iv 1 mg/kg
  AUC(0-inf): 3.97 µg·h/mL
  AUC(0-t): 3.72 µg·h/mL
  C0: 2.46 µg/mL
  t1/2z: 7.2 h
[6]; male rats, po 5 mg/kg
  AUC(0-inf): 0.692 µg·h/mL
  AUC(0-t): 0.649 µg·h/mL
  CL/F: 20.6 L/h/kg
  Cmax: 0.215 µg/mL
  t1/2z: 1.9 h
[6]; male rats
  bioavailability: 3.5%
[7]; female mice
  bioavailability: 34%
[7]; female mice, 5 mg/kg oral, cassette
  half-life: 1.5 h
[7]; female mice, 5 mg/kg oral, cassette, read-out: AUC0-24 h
  AUC(0-t): 0.771 µg·h/mL
[7]; female mice, 5 mg/kg oral, cassette, sampling to 24 h
  Cmax: 0.301 µg/mL
[7]; male mice
  bioavailability: 93%
[7]; male mice, 5 mg/kg oral, cassette
  half-life: 2.3 h
[7]; male mice, 5 mg/kg oral, cassette, read-out: AUC0-24 h
  AUC(0-t): 1.04 µg·h/mL
[7]; male mice, 5 mg/kg oral, cassette, sampling to 24 h
  Cmax: 0.392 µg/mL
[8]; female, mouse liver microsomes batch 4338001 female (Corning)
  microsomal CLint: 43.9 µL/min/mg
[8]; female, mouse liver microsomes batch MDO female (Bioreclamation IVT)
  microsomal CLint: 50.3 µL/min/mg
[8]; male, mouse liver microsomes batch 0010003 male (Corning)
  microsomal CLint: 24 µL/min/mg

## [2H]C([2H])(CC(C)(C)O)n1ncc(-c2onc(-c3c(F)cccc3Cl)c2C(=O)OC)c1C(F)(F)F [Example 7, Methyl 3-(2-chloro-6-fluorophenyl)-5-(1-(3-hydroxy-3-methylbutyl-1,1-d2)-5-(tri-fluoromethyl)-1H-pyrazol-4-yl)isoxazole-4-carboxylate]
[3]
  CC50: 20 µM
[2]
  IC50: 0.01 to 0.1 µM
[4]
  EC50: < 0.1 µM

## [2H]C([2H])([2H])OC(=O)c1c(-c2c(F)cccc2Cl)noc1-c1cnn(C([2H])([2H])CC(C)(C)O)c1C(F)(F)F [Example 7/2, Methyl-d3 3-(2-chloro-6-fluorophenyl)-5-(1-(3-hydroxy-3-methylbutyl-1,1-d2)-5-(tri-fluoromethyl)-1H-pyrazol-4-yl)isoxazole-4-carboxylate]
[3]
  CC50: 63 µM
[2]
  IC50: 0.01 to 0.1 µM
[4]
  EC50: < 0.1 µM

## [2H]C([2H])(OC1CC1)c1c(-c2c(F)cccc2Cl)noc1-c1cnn(C([2H])([2H])CC(C)(C)O)c1C(F)(F)F [Example 9, 4-(4-(3-(2-Chloro-6-fluorophenyl)-4-(cyclopropoxymethyl-d2)isoxazol-5-yl)-5-(trifluoro-methyl)-1H-pyrazol-1-yl)-2-methylbutan-4,4-d2-2-ol]
[3]
  CC50: 18 µM
[2]
  IC50: 0.01 to 0.1 µM
[4]
  EC50: 0.1 to 1 µM

## [2H]C([2H])([2H])c1c(-c2onc(-c3c(F)cccc3Cl)c2-c2ncccn2)cnn1C([2H])([2H])CC(C)(C)O [Example 10/1]
[3]
  CC50: > 100 µM
[2]
  IC50: 0.1 to 1 µM
[4]
  EC50: 0.1 to 1 µM

## [2H]C([2H])(OC(C)C)c1c(-c2c(F)cccc2Cl)noc1-c1cnn(-c2cccc(Cl)c2)c1C(F)(F)F [Example 102/1]
[3]
  CC50: > 100 µM
[2]
  IC50: < 0.01 µM
[4]
  EC50: < 0.1 µM
[7]; [9]
  Cmax: 0.922 µg/mL
  half-life: 2.6 h
[7]; [10]
  AUC(0-t): 2.35 µg·h/mL

## [2H]C([2H])(OC([2H])(C([2H])([2H])[2H])C([2H])([2H])[2H])c1c(-c2c(F)cccc2Cl)noc1-c1cnn(-c2cccc(Cl)c2)c1C(F)(F)F [Example 102/2]
[3]
  CC50: > 100 µM
[2]
  IC50: < 0.01 µM
[4]
  EC50: < 0.1 µM
[7]; [9]
  Cmax: 0.112 µg/mL
  half-life: 2.8 h
[7]; [10]
  AUC(0-t): 0.28 µg·h/mL

## [2H]C([2H])([2H])OC([2H])([2H])c1c(-c2c(F)cccc2Cl)noc1-c1cnn(-c2cccc(Cl)c2)c1C(F)(F)F [Example 110, 3-(2-Chloro-6-fluorophenyl)-5-(1-(3-chlorophenyl)-5-(trifluoromethyl)-1H-pyrazol-4-yl)-4-((methoxy-d3)methyl-d2)isoxazole]
[3]
  CC50: > 100 µM
[2]
  IC50: < 0.01 µM
[4]
  EC50: < 0.1 µM

## [2H]C([2H])(OC([2H])([2H])C([2H])([2H])[2H])c1c(-c2c(F)cccc2Cl)noc1-c1cnn(-c2cccc(Cl)c2)c1C(F)(F)F [Example 110/1]
[3]
  CC50: > 100 µM
[2]
  IC50: 0.01 to 0.1 µM
[4]
  EC50: < 0.1 µM
